According to patent US20100120679A1, “Targeting NBS1-ATM Interaction To Sensitize Cancer Cells To Radiotherapy And Chemotherapy” (SOUTHERN RESEARCH INSTITUTE, priority 2006, published 2010):
Peptide text beside a SMILES is read from it. * marks the point of attachment. Biotin = O=C1N[C@H]2[C@H](CS[C@H]2CCCCC(=O)*)N1

How the values were obtained:
NBS1 binding to MRE11 = target: T1, NBS1 binding to MRE11 (Homo sapiens, UniProt P49959); assay: Co-immunoprecipitation of MRE11 with NBS1 in peptide-treated cells; format: cell-based; conditions: HeLa cells, four hours after peptide treatment
T1 construct: endogenous in cells; host or cells: HeLa
T1 sequence (P49959 1-708): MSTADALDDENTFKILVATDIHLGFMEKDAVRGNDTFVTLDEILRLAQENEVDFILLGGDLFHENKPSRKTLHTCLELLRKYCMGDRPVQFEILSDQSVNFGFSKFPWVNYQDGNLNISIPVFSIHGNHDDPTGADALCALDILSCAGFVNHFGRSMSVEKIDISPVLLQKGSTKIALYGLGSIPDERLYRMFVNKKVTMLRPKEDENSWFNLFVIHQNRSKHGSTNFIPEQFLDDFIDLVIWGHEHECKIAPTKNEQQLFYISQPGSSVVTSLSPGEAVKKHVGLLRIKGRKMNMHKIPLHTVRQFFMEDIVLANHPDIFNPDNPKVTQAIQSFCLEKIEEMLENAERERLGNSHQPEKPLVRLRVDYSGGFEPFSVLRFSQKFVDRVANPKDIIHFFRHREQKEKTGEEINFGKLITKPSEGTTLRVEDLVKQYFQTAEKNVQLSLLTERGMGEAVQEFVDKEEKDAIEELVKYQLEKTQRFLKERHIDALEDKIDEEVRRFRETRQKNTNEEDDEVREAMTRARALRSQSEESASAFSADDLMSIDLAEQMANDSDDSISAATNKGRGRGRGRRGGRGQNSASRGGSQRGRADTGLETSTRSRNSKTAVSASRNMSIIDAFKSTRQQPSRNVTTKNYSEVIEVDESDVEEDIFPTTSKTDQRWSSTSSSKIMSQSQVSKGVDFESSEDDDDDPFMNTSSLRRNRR
Protocol: HeLa cells treated with the NIP peptides were irradiated (0 or 6Gy). Immunoprecipitation was performed with a rabbit NBS1 antibody, and Western blotting was performed with monoclonal antibodies against ATM, NBS1 or MRE11.
Immunoprecipitation and Western blotting: For co-immunoprecipitation of ATM, NBS1 and MRE11, cells were lysed 1 hour in ice-cold lysis buffer, which consisted of 10 mM Tris-HCl (pH 7.5), 100 mM NaCl, 5 mM EDTA, 0.5% NP-40, 5 mM Na3VO4, 1 mM NaF, and 1 mM PMSF. After centrifugation, supernatants were incubated with indicated antibodies. After extensive washing with the lysis buffer, immunoprecipitates were analyzed by immunoblot using specific antibodies. For western blotting analysis, samples (cell lysates or immunoprecipitates) were separated on 4-12% SDS-poly-acrylamide gels, transferred to nitrocellulose membranes, and probed with various antibodies.
wtNIP Abrogated the NBS1-ATM Interaction: To investigate whether R9-conjugated NIP peptides could inhibit NBS1-ATM interactions, coimmunoprecipitation experiments were performed in cells treated with the NIP peptides. Four hours after peptide treatment, HeLa cells were harvested and subjected to immunoprecipitation using an anti-NBS1 antibody. The immunoprecipitates were then blotted with anti-ATM, NBS1, and MRE11 antibodies.

HeLa cells = assay: Colony formation assay (radiosensitivity), HeLa
Protocol: Shown in A (HeLa), C (MO59J) and D (GM9607) are the susvival curves after indicated doses of radiation. Error bars represent +/−1 SEM, graphed are the mean of three independent experiments.
Colony formation assays: To determine the radiosensitivity, the colony forming assay was incorporated. Cells were harvested with 0.125% trypsin-0.05% EDTA, pelleted and re-suspended in 1 ml fresh media with a 22 g needle to disperse clumps prior to hemocytometer counting in trypan blue. Cells were then plated at limiting dilutions in […] and allowed to adhere overnight. Cultures were treated with PBS, R9, wtNIP, or scNIP for 1 hour, and irradiated (0-6Gy). Fresh peptides were added every four hours until 24 hours after IR, when the medium was replaced with peptide-free medium. Cultures were incubated for 10-12 days, harvested and stained with 0.5% crystal violet in methanol. Colony number was determined with a dissecting microscope. A population of >50 cells was counted as one colony, and the number of colonies was expressed as a percentage of the value for untreated mock irradiated control cells. The surviving curves were plotted by linear regression analyses and the D0 value represents the radiation dose that leads to 37% of survival. To determine the radiosensitizing potential of the peptides in comparison to other small molecule inhibitors, the sensitizing enhancement ratio (SER) was calculated based on the dose of radiation required to reduce survival to 37% in the presence of scNIP or wtNIP. The following formula was used: […]
Statistics: To establish statistical significance, Student's t-test was incorporated. The data were first fit to each experimental group over a dose range of 0-6Gy. Significant differences were established at p<0.05.
FIG. 6A depicts the survival curves for HeLa cells treated with R9, wtNIP, or scNIP over a dose range of 0 to 6 Gy.

CC(C)C[C@H](NC(=O)[C@H](CC(=O)O)NC(=O)[C@H](CC(=O)O)NC(=O)[C@H](C)NC(=O)[C@H](CC(C)C)NC(=O)[C@H](CO)NC(=O)[C@H](CCC(=O)O)NC(=O)[C@H](CCC(=O)O)NC(=O)[C@H](CCCCN)NC(=O)[C@H](CCCNC(=N)N)NC(=O)[C@H](CCCNC(=N)N)NC(=O)[C@H](CCCNC(=N)N)NC(=O)[C@H](CCCNC(=N)N)NC(=O)[C@H](CCCNC(=N)N)NC(=O)[C@H](CCCNC(=N)N)NC(=O)[C@H](CCCNC(=N)N)NC(=O)[C@H](CCCNC(=N)N)NC(=O)[C@H](CCCNC(=N)N)NC(=O)CCCC[C@@H]1SC[C@@H]2NC(=O)N[C@@H]21)C(=O)O [wtNIP] (Biotin-RRRRRRRRRKEESLADDL-OH)
NBS1 binding to MRE11 (NBS1 binding to MRE11): did not interfere with NBS1 binding to MRE11 | D0 (mean lethal dose required for 37% survival) (HeLa cells): 1.9 | SER (dose required to reduce survival to 37%, scNIP versus wtNIP) (HeLa cells): 1.58 | sensitizer enhancement ratio (HeLa cells; 2Gy): 1.66 | sensitizer enhancement ratio (HeLa cells; 4Gy): 2.61 | sensitizer enhancement ratio (HeLa cells; 6Gy): 3.12 | effect on radiosensitivity / IR-induced survival (HeLa cells; dose range 0 to 6 Gy): can significantly decrease IR-induced survival
